Laboratory results as given in ChEMBL document CHEMBL3046521, “Synthesis and antitumor activity of (4-hydroxyphenyl)[5-substituted alkyl/aryl)-2-thioxo-1,3,4-thiadiazol-3-yl]methanone and [(3,4-disubstituted)-1,3-thiazol-2ylidene]-4-hydroxybenzohydrazide” (2011).

Key:
Assay type in all cases: functional
[1] = tested on: SK-MEL-5; experiment: Cytotoxicity against Homo sapiens (human) SK-MEL-5 cells after 48 hr by sulforhodamine B assay; settings: SK-MEL-5, 48 h; for TGI: read-out: pTGI (converted)
[2] = tested on: KM12; experiment: Cytotoxicity against Homo sapiens (human) KM12 cells after 48 hr by sulforhodamine B assay; settings: KM12, 48 h; for TGI: read-out: pTGI (converted)
[3] = Cytotoxicity against Homo sapiens (human) […] cells after 48 hr by sulforhodamine B assay; settings: for TGI: read-out: pTGI (converted)
[4] = tested on: DU-145; experiment: Cytotoxicity against Homo sapiens (human) DU145 cells after 48 hr by sulforhodamine B assay; settings: DU-145, 48 h; for TGI: read-out: pTGI (converted)
[5] = tested on: SNB-75; experiment: Cytotoxicity against Homo sapiens (human) SNB75 cells after 48 hr by sulforhodamine B assay; settings: SNB-75, 48 h; for TGI: read-out: pTGI (converted)
[6] = tested on: T47D; experiment: Cytotoxicity against Homo sapiens (human) T47D cells after 48 hr by sulforhodamine B assay; settings: for TGI: read-out: pTGI (converted)
[7] = tested on: COLO 205; experiment: Cytotoxicity against Homo sapiens (human) COLO205 cells after 48 hr by sulforhodamine B assay; settings: COLO 205, 48 h; for TGI: read-out: pTGI (converted)
[8] = tested on: MDA-MB-435; experiment: Cytotoxicity against Homo sapiens (human) MDA-MB-435 cells after 48 hr by sulforhodamine B assay; settings: MDA-MB-435, 48 h; for TGI: read-out: pTGI (converted)
[9] = tested on: Hs-578T; experiment: Cytotoxicity against Homo sapiens (human) Hs 578T cells after 48 hr by sulforhodamine B assay; settings: for TGI: read-out: pTGI (converted)
[10] = tested on: NCI-H23; experiment: Cytotoxicity against Homo sapiens (human) NCI-H23 cells after 48 hr by sulforhodamine B assay; settings: NCI-H23, 48 h; for TGI: read-out: pTGI (converted)
[11] = tested on: SW-620; experiment: Cytotoxicity against Homo sapiens (human) SW620 cells after 48 hr by sulforhodamine B assay; settings: SW-620, 48 h; for TGI: read-out: pTGI (converted)
[12] = tested on: SF-295; experiment: Cytotoxicity against Homo sapiens (human) SF295 cells after 48 hr by sulforhodamine B assay; settings: SF-295, 48 h; for TGI: read-out: pTGI (converted)
[13] = tested on: HCC 2998; experiment: Anticancer activity in Homo sapiens (human) HCC2998 cells assessed as cell growth at 10^-5 M after 48 hr by SRB assay; settings: HCC 2998, 48 h, read-out: Activity
[14] = tested on: UO-31; experiment: Cytotoxicity against Homo sapiens (human) UO31 cells after 48 hr by sulforhodamine B assay; settings: UO-31, 48 h; for TGI: read-out: pTGI
[15] = tested on: ACHN; experiment: Cytotoxicity against Homo sapiens (human) ACHN cells after 48 hr by sulforhodamine B assay; settings: for TGI: read-out: pTGI (converted)
[16] = tested on: PC-3; experiment: Cytotoxicity against Homo sapiens (human) PC3 cells after 48 hr by sulforhodamine B assay; settings: PC-3, 48 h; for TGI: read-out: pTGI (converted)
[17] = tested on: SR; experiment: Cytotoxicity against Homo sapiens (human) SR cells after 48 hr by sulforhodamine B assay; settings: for TGI: read-out: pTGI
[18] = tested on: 786-0; experiment: Cytotoxicity against Homo sapiens (human) 786-0 cells after 48 hr by sulforhodamine B assay; settings: 786-0, 48 h; for TGI: read-out: pTGI (converted)
[19] = tested on: CAKI-1; experiment: Cytotoxicity against Homo sapiens (human) Caki1 cells after 48 hr by sulforhodamine B assay; settings: CAKI-1, 48 h; for TGI: read-out: pTGI (converted)
[20] = tested on: SK-MEL-2; experiment: Cytotoxicity against Homo sapiens (human) SK-MEL-2 cells after 48 hr by sulforhodamine B assay; settings: SK-MEL-2, 48 h; for TGI: read-out: pTGI (converted)
[21] = tested on: U-251; experiment: Cytotoxicity against Homo sapiens (human) U251 cells after 48 hr by sulforhodamine B assay; settings: U-251, 48 h; for TGI: read-out: pTGI (converted)
[22] = tested on: A498; experiment: Cytotoxicity against Homo sapiens (human) A498 cells after 48 hr by sulforhodamine B assay; settings: A498, 48 h
[23] = tested on: NCI-H522; experiment: Cytotoxicity against Homo sapiens (human) NCI-H522 cells after 48 hr by sulforhodamine B assay; settings: NCI-H522, 48 h; for TGI: read-out: pTGI (converted)
[24] = tested on: NCI-H322M; experiment: Cytotoxicity against Homo sapiens (human) NCI-H322M cells after 48 hr by sulforhodamine B assay; settings: for TGI: read-out: pTGI (converted)
[25] = tested on: IGROV-1; experiment: Cytotoxicity against Homo sapiens (human) IGROV1 cells after 48 hr by sulforhodamine B assay; settings: IGROV-1, 48 h; for TGI: read-out: pTGI (converted)
[26] = tested on: HOP-62; experiment: Cytotoxicity against Homo sapiens (human) HOP62 cells after 48 hr by sulforhodamine B assay; settings: HOP-62, 48 h; for TGI: read-out: pTGI (converted)
[27] = tested on: MCF7; experiment: Cytotoxicity against Homo sapiens (human) MCF7 cells after 48 hr by sulforhodamine B assay; settings: MCF7, 48 h; for TGI: read-out: pTGI (converted)
[28] = tested on: UACC-62; experiment: Cytotoxicity against Homo sapiens (human) UACC62 cells after 48 hr by sulforhodamine B assay; settings: UACC-62, 48 h; for TGI: read-out: pTGI (converted)
[29] = tested on: NCI-H460; experiment: Cytotoxicity against Homo sapiens (human) NCI-H460 cells after 48 hr by sulforhodamine B assay; settings: NCI-H460, 48 h; for TGI: read-out: pTGI (converted)
[30] = tested on: HT-29; experiment: Cytotoxicity against Homo sapiens (human) HT-29 cells after 48 hr by sulforhodamine B assay; settings: HT-29, 48 h; for TGI: read-out: pTGI (converted)

O=C(c1ccc(O)cc1)n1nc(-c2c(Cl)cccc2Cl)sc1=S
GI50 [1]: 10.7 µM
LC50 [1]: 56.2 µM
TGI [1]: 24.5 µM
GI50 [2]: 3.8 µM
LC50 [2]: 41.7 µM
TGI [2]: 14.8 µM
GI50 [3]: 7.59 µM
LC50 [3]: > 100 µM
TGI [3]: 60.3 µM
GI50 [4]: 5.89 µM
LC50 [4]: 79.4 µM
TGI [4]: 29.5 µM
GI50 [5]: 16.6 µM
LC50 [5]: > 100 µM
TGI [5]: 50.1 µM
GI50 [6]: 3.89 µM
LC50 [6]: > 100 µM
TGI [6]: 32.4 µM
GI50 [7]: 13.5 µM
LC50 [7]: 64.6 µM
TGI [7]: 29.5 µM
GI50 [8]: 3.72 µM
LC50 [8]: > 100 µM
TGI [8]: 31.6 µM
GI50 [9]: 29.5 µM
LC50 [9]: > 100 µM
TGI [9]: 89.1 µM
GI50 [10]: 12.6 µM
LC50 [10]: > 100 µM
TGI [10]: 53.7 µM
GI50 [11]: 12 µM
LC50 [11]: 87.1 µM
TGI [11]: 31.6 µM
GI50 [12]: 5.13 µM
LC50 [12]: > 100 µM
TGI [12]: 29.5 µM
growth at 10 µM [13]: 17.1%
GI50 [14]: 9.33 µM
LC50 [14]: > 100 µM
TGI [14]: > 100 µM
GI50 [15]: 7.76 µM
LC50 [15]: > 100 µM
TGI [15]: 41.7 µM
GI50 [16]: 3.31 µM
LC50 [16]: > 100 µM
TGI [16]: 30.2 µM
GI50 [17]: 1.51 µM
LC50 [17]: > 100 µM
TGI [17]: > 100 µM
GI50 [18]: 2.34 µM
LC50 [18]: 53.7 µM
TGI [18]: 17 µM
GI50 [19]: 6.03 µM
LC50 [19]: > 100 µM
TGI [19]: 57.5 µM
GI50 [20]: 14.5 µM
LC50 [20]: 95.5 µM
TGI [20]: 37.2 µM
GI50 [21]: 11.5 µM
LC50 [21]: 91.2 µM
TGI [21]: 32.4 µM
GI50 [22]: 2.34 µM
CC50 ([22]; read-out: pLC50 (the source's name) (converted)): 53.7 µM
TGI ([22]; read-out: pTGI (converted)): 17 µM
GI50 [23]: 11.7 µM
LC50 [23]: > 100 µM
TGI [23]: 41.7 µM
GI50 [24]: 15.1 µM
LC50 [24]: > 100 µM
TGI [24]: 66.1 µM
GI50 [25]: 12.9 µM
LC50 [25]: > 100 µM
TGI [25]: 89.1 µM
GI50 [26]: 18.6 µM
LC50 [26]: > 100 µM
TGI [26]: 43.7 µM
GI50 [27]: 11.5 µM
LC50 [27]: 87.1 µM
TGI [27]: 32.4 µM
GI50 [28]: 9.55 µM
LC50 [28]: 58.9 µM
TGI [28]: 24 µM
GI50 [29]: 9.33 µM
LC50 [29]: 75.9 µM
TGI [29]: 26.3 µM
GI50 [30]: 8.32 µM
LC50 [30]: 53.7 µM
TGI [30]: 22.9 µM

Cc1ccc(-c2cs/c(=N\NC(=O)c3ccc(O)cc3)n2-c2c(C)cccc2C)cc1
GI50 [1]: 14.5 µM
LC50 [1]: 61.7 µM
TGI [1]: 30.2 µM
GI50 [2]: 18.2 µM
LC50 [2]: > 100 µM
TGI [2]: 89.1 µM
GI50 [3]: 20 µM
LC50 [3]: > 100 µM
TGI [3]: > 100 µM
GI50 [4]: 28.2 µM
LC50 [4]: > 100 µM
TGI [4]: > 100 µM
GI50 [5]: 24.5 µM
LC50 [5]: > 100 µM
TGI [5]: > 100 µM
GI50 [6]: 12.9 µM
LC50 [6]: > 100 µM
TGI [6]: 63.1 µM
GI50 [7]: 16.6 µM
LC50 [7]: > 100 µM
TGI [7]: 66.1 µM
GI50 [8]: 16.6 µM
LC50 [8]: > 100 µM
TGI [8]: 85.1 µM
GI50 [9]: 23.4 µM
LC50 [9]: > 100 µM
TGI [9]: 91.2 µM
GI50 [10]: 25.7 µM
LC50 [10]: > 100 µM
TGI [10]: > 100 µM
GI50 [11]: 28.8 µM
LC50 [11]: > 100 µM
TGI [11]: > 100 µM
GI50 [12]: 20.9 µM
LC50 [12]: > 100 µM
TGI [12]: 79.4 µM
GI50 [14]: 9.55 µM
LC50 [14]: > 100 µM
TGI [14]: > 100 µM
GI50 [15]: 20.9 µM
LC50 [15]: > 100 µM
TGI [15]: > 100 µM
GI50 [16]: 11 µM
LC50 [16]: > 100 µM
TGI [16]: 91.2 µM
GI50 [17]: 16.2 µM
LC50 [17]: > 100 µM
TGI [17]: > 100 µM
GI50 [18]: 22.4 µM
LC50 [18]: > 100 µM
TGI [18]: > 100 µM
GI50 [19]: 10.5 µM
LC50 [19]: > 100 µM
TGI [19]: > 100 µM
GI50 [20]: 30.2 µM
LC50 [20]: > 100 µM
TGI [20]: 95.5 µM
GI50 [21]: 25.1 µM
LC50 [21]: > 100 µM
TGI [21]: > 100 µM
GI50 [23]: 20.9 µM
LC50 [23]: > 100 µM
TGI [23]: > 100 µM
GI50 [24]: 35.5 µM
LC50 [24]: > 100 µM
TGI [24]: > 100 µM
GI50 [25]: 20 µM
LC50 [25]: > 100 µM
TGI [25]: > 100 µM
GI50 [26]: 23.4 µM
LC50 [26]: > 100 µM
TGI [26]: 74.1 µM
GI50 [27]: 23.4 µM
LC50 [27]: > 100 µM
TGI [27]: 95.5 µM
GI50 [28]: 16.6 µM
LC50 [28]: > 100 µM
TGI [28]: 95.5 µM
GI50 [29]: 14.8 µM
LC50 [29]: > 100 µM
TGI [29]: 72.4 µM
GI50 [30]: 17.4 µM
LC50 [30]: 83.2 µM
TGI [30]: 38 µM
